Experiments:
Type in all cases: cell-based
[1] = tested on: wheat scab fungi (Fusarium graminearum and Fusarium asiaticum); assay: organism not typed; conditions: for inhibition at 0.125 µg/mL / inhibition at 0.25 µg/mL / inhibition at 0.5 µg/mL: read-out: Mycelial growth inhibition rate (MGIR); for inhibition at 0.5 µg/mL: 0.5 mg/L
[2] = tested on: banana Fusarium wilt pathogen (Fusarium oxysporum); assay: microbe, parasite or virus in culture; conditions: 1 mg/L; for inhibition at 1 µg/mL: Fusarium, read-out: Mycelial growth inhibition rate
[3] = tested on: rice bakanae disease pathogen (Fusarium moniliforme); assay: microbe, parasite or virus in culture; conditions: 1 mg/L; for inhibition at 1 µg/mL: Fusarium verticillioides, read-out: Mycelial growth inhibition rate
[4] = tested on: melon Fusarium wilt pathogen (Fusarium oxysporum); assay: microbe, parasite or virus in culture; conditions: 1 mg/L; for inhibition at 1 µg/mL: Fusarium, read-out: Mycelial growth inhibition rate

| Compound | inhibition at 0.125 µg/mL ([1]; 0.125 mg/L) | inhibition at 0.25 µg/mL ([1]; 0.25 mg/L) | inhibition at 0.5 µg/mL [1] | also measured |
| --- | --- | --- | --- | --- |
| CCOC(=O)/C(C#N)=C(\N)c1ccc(N)cc1 [Compound 1] | 65.5 ± 4.3% | 81.2 ± 6.3% | > 90% |  |
| CCOC(=O)/C(C#N)=C(\N)c1ccc(NC)cc1 [Compound 2] | > 90% | > 90% | > 90% | inhibition at 1 µg/mL [2]: > 90%; inhibition at 1 µg/mL [3]: > 90%; inhibition at 1 µg/mL [4]: > 90% |
| CCNc1ccc(/C(N)=C(\C#N)C(=O)OCC)cc1 [Compound 3] | > 90% | > 90% | > 90% | inhibition at 1 µg/mL [2]: > 90%; inhibition at 1 µg/mL [3]: > 90%; inhibition at 1 µg/mL [4]: > 90% |
| CCOC(=O)/C(C#N)=C(\N)c1ccc(N(C)CC)cc1 [Compound 8] | 88.3 ± 4.5% | > 90% | > 90% |  |
| CCOC(=O)/C(C#N)=C(\N)c1ccc(N(CC)CC)cc1 [Compound 11] | > 90% | > 90% | > 90% | inhibition at 1 µg/mL [2]: > 90%; inhibition at 1 µg/mL [3]: > 90%; inhibition at 1 µg/mL [4]: > 90% |
| CCOC(=O)/C(C#N)=C(\N)c1ccc(N2CCC2)cc1 [Compound 15] | 84.2 ± 4.5% | > 90% | > 90% |  |
| CCOC(=O)/C(C#N)=C(\N)c1ccc(N2CCCC2)cc1 [Compound 16] | 82.3 ± 2.5% | > 90% | > 90% |  |
| CCOC(=O)/C(C#N)=C(\N)c1ccc(N2CCCCC2)cc1 [Compound 17] | 81.4 ± 5.5% | > 90% | > 90% |  |
| CCN(CC)c1ccc(/C(N)=C(\C#N)C(=O)OC)cc1 [Compound 28] | 74.4 ± 3.8% | 85.3 ± 3.3% | > 90% |  |
| CCCOC(=O)/C(C#N)=C(\N)c1ccc(NC)cc1 [Compound 34] | 74.1 ± 2.3% | 84.9 ± 5.4% | > 90% |  |
| CCCOC(=O)/C(C#N)=C(\N)c1ccc(NCC)cc1 [Compound 35] | 76.6 ± 3.3% | 85.8 ± 1.8% | > 90% |  |
| CCCOC(=O)/C(C#N)=C(\N)c1ccc(N(C)C)cc1 [Compound 36] | 75.2 ± 3.3% | 85.4 ± 3.9% | > 90% |  |
| CCCOC(=O)/C(C#N)=C(\N)c1ccc(N(CC)CC)cc1 [Compound 37] | 73.9 ± 5.5% | 84.8 ± 7.1% | > 90% |  |
| phenamacril [reference compound] |  |  |  | Mycelial growth inhibition rate (MGIR) ([1]; 0.125 mg/L): 21.1 ± 2.3%; Mycelial growth inhibition rate (MGIR) ([1]; 0.25 mg/L): 36.1 ± 5.0%; Mycelial growth inhibition rate [2]: 25%; Mycelial growth inhibition rate [3]: 25%; Mycelial growth inhibition rate [4]: 25% |

From US20240298639A1 (priority 2021, published 2024)
